Measured values reported in patent publication US20170095497A1, “TRANSIENT INHIBITION OF ADENOSINE KINASE AS AN ANTI-EPILE[…]” (Legacy Emanuel Hospital & Health Center, priority 2015, published 2017).

Experiments:
[1] = test system: DNA methyltransferase (DNMT); conditions: mice, one hour after administration
Excerpt: FIGS. 3 and 4 show a pair of bar graphs reporting the level of DNMT activity measured one hour after administration to mice of vehicle alone or with the indicated inhibitor.

[2] = test system: kainic acid (KA) triggered epileptogenesis in mice; assay: EEG seizure recording six weeks after intrahippocampal kainic acid-triggered epileptogenesis, transient ITU treatment; format: in vivo, mouse
Description: (§1) Kainic acid (KA) was administered intrahippocampally (IH) at day 0 to produce status epilepticus. […] At six weeks and nine weeks, the subjects were analyzed by EEG alone or EEG and histology, respectively.
The number of subjects from which data were collected is indicated in parentheses above each condition.

[3] = test system: kainic acid (KA) triggered epileptogenesis in mice; assay: Histological analysis of hippocampal tissue sections at nine weeks after KA status epilepticus; format: in vivo, mouse
Description: as §1
Administration of saline only is a control (top row of images). […] The tissue sections shown in the first column of images were Nissl stained, and those in the second, third, and fourth columns were stained respectively with antibodies to glial fibrillary acidic protein (GFAP), ADK, and 5-methylcytosine (5mC).
FIGS. 12-14 are a series of graphs plotting data from the histological analysis represented by FIG. 11. […] FIG. 13 plots the level of GFAP, and FIG. 14 the level of ADK.

[4] = 1.6 mg/kg ip twice daily, day 3 to day 8 after KA, EEG at six weeks
[5] = hippocampal sections, nine weeks after KA, transient ITU ip

Nc1ncnc2c1c(I)cn2[C@@H]1O[C@H](CO)[C@@H](O)[C@H]1O [ITU, 5-iodotubercidin]
inhibition of DNMT compared with AZA ([1]; ITU 3.1 mg/kg): as effective as AZA
DNMT inhibition compared with ADOX and IODO [1]: most effective
seizure frequency [2, 4]: dramatically reduced
time spent in seizure [2, 4]: dramatically reduced
frequency of seizures and time spent in seizures ([2]; 3.1 mg/kg ip once daily, day 3 to day 8 after KA, EEG at six weeks): substantially ineffective
frequency of seizures and time spent in seizures, partial repeat experiment ([2]; ITU twice daily, EEG at six weeks, repeat of FIGS. 6 and 7): confirm the long-term, anti-epileptogenic effect
half-life ([2]; mice, inferred from once-daily versus twice-daily efficacy): much less than one day
dentate granule layer dispersion produced by KA ([3]; Nissl stained sections, nine weeks, compared to controls): significantly less
level of 5-methylcytosine [3, 5]: reduced
level of ADK [3, 5]: reduced
epilepsy-associated histopathology (Nissl) ([3]; nine weeks after KA, transient ITU ip): prevented later development of epilepsy-associated histopathology
